# Laboratory results published in patent US11357779B2 (G1 Therapeutics, Inc., priority 2018, dated 2022).
# Where two headings read alike, the source gives them in different places.
# Test: Plasma concentration versus time of Compound I and metabolite Compound III in patients dosed QD or BID with Form B of Compound II plus fulvestrant
# Assay type: in vivo, human
# Conditions: human, plasma, oral, read-out: Compound I Concentration
# Source text: Patients were enrolled into 1 of 2 parallel, independently operating, dose-escalation dosing cohorts with Form B of Compound II administered continuously either once daily (QD) or twice daily (BID) with food with fixed-dose fulvestrant (intramuscularly every 14 days for the first three injections and then every 28 days). Pre- or perimenopausal patients also received goserelin for the duration of study treatment. A […] agonist was started at least 28 days before the first dose of Form B, and those patients who were taking another LHRH agonist were switched to goserelin on Day 1. Patients were split into […] cohorts providing once a day (QD) dosing of 200 mg, 300 mg, 400 mg, 500 mg, or 650 mg of Form B, or twice a day (BID) dosing of 100 mg, 150 mg, or 200 mg of Form B. The second dose in BID cohorts was not administered in the evening until at least 12 hours after the initial morning dose of Form B. The dosing cohorts for Form B of Compound II are provided in Table 1.
# Blood samples were collected at the following time points relative to the morning dose of Form B at Day 1 and at Day 29: pre-dose (0 hour) and 1, 2, 3, 4, 6, 8, 10, 12 (prior to the evening dose in the BID cohorts), and 24 (prior to the next day's morning dose) hours after dosing. A 5-minute time window was allowed for samples collected between the predose and 3 hours after Form B dosing. A 15-minute window was allowed for samples collected between 4 to 12 hours after Form B dosing. A 1-hour window was allowed for the sample collected 24 hours after Form B dosing. Blood samples for Compound I PK trough levels were collected pre-dose at Day 8, Day 15, and Day 22 prior to the morning administration of Compound I. Plasma concentrations of Compound I and its metabolite, Compound III, were measured using validated methods.
# Analysis of plasma concentration versus time data for calculation of standard pharmacokinetic (PK) parameters following oral administration was conducted using Phoenix WinNonlin version 6.3 using actual blood sampling times.
smiles,measurement,setting,value
"CC(C)N1CCN(c2ccc(Nc3ncc4cc5n(c4n3)C3(CCCCC3)CNC5=O)nc2)CC1 [Compound I, 2′-((5-(4-isopropylpiperazin-1-yl)pyridin-2-yl)amino)-7′,8′-dihydro-6′H-spiro[cyclohexane-1,9′-pyrazino[1′,2′:1,5]pyrrolo[2,3-d]pyrimidin]-6′-one]",concentration at 1 h,"300 mg, 300 mg QD of Form B, Day 29, 1.0 h, Median",15.4 ng/mL
same,concentration at 2 h,"300 mg, 300 mg QD of Form B, Day 29, 2.0 h, Mean",22.6 ng/mL
same,concentration at 2 h,"300 mg, 300 mg QD of Form B, Day 29, 2.0 h, Median",19.5 ng/mL
same,concentration at 3 h,"300 mg, 300 mg QD of Form B, Day 29, 3.0 h, Mean",31 ng/mL
same,concentration at 3 h,"300 mg, 300 mg QD of Form B, Day 29, 3.0 h, Median",26.3 ng/mL
same,concentration at 4 h,"300 mg, 300 mg QD of Form B, Day 29, 4.0 h, Mean",44.9 ng/mL
same,concentration at 4 h,"300 mg, 300 mg QD of Form B, Day 29, 4.0 h, Median",34.2 ng/mL
same,concentration at 6 h,"300 mg, 300 mg QD of Form B, Day 29, 6.0 h, Mean",35.9 ng/mL
same,concentration at 6 h,"300 mg, 300 mg QD of Form B, Day 29, 6.0 h, Median",39.2 ng/mL
same,concentration at 8 h,"300 mg, 300 mg QD of Form B, Day 29, 8.0 h, Mean",31.5 ng/mL
same,concentration at 8 h,"300 mg, 300 mg QD of Form B, Day 29, 8.0 h, Median",33.3 ng/mL
same,concentration at 10 h,"300 mg, 300 mg QD of Form B, Day 29, 10.0 h, Mean",25.6 ng/mL
same,concentration at 10 h,"300 mg, 300 mg QD of Form B, Day 29, 10.0 h, Median",18.9 ng/mL
same,concentration at 12 h,"300 mg, 300 mg QD of Form B, Day 29, 12.0 h, Mean",26.4 ng/mL
same,concentration at 12 h,"300 mg, 300 mg QD of Form B, Day 29, 12.0 h, Median",20.5 ng/mL
same,concentration at 24 h,"300 mg, 300 mg QD of Form B, Day 29, […], Mean",14.4 ng/mL
same,concentration at 24 h,"300 mg, 300 mg QD of Form B, Day 29, […], Median",10.9 ng/mL
same,concentration at 0 h,"400 mg, 400 mg QD of Form B, Day 1, 0.0 h, Mean",0 ng/mL
same,concentration at 0 h,"400 mg, 400 mg QD of Form B, Day 1, 0.0 h, Median",0 ng/mL
same,concentration at 1 h,"400 mg, 400 mg QD of Form B, Day 1, 1.0 h, Mean",5.32 ng/mL
same,concentration at 1 h,"400 mg, 400 mg QD of Form B, Day 1, 1.0 h, Median",2.26 ng/mL
same,concentration at 2 h,"400 mg, 400 mg QD of Form B, Day 1, 2.0 h, Mean",5.67 ng/mL
same,concentration at 2 h,"400 mg, 400 mg QD of Form B, Day 1, 2.0 h, Median",4.83 ng/mL
same,concentration at 3 h,"400 mg, 400 mg QD of Form B, Day 1, 3.0 h, Mean",9.21 ng/mL
same,concentration at 3 h,"400 mg, 400 mg QD of Form B, Day 1, 3.0 h, Median",9.38 ng/mL
same,concentration at 4 h,"400 mg, 400 mg QD of Form B, Day 1, 4.0 h, Mean",14 ng/mL
same,concentration at 4 h,"400 mg, 400 mg QD of Form B, Day 1, 4.0 h, Median",13.1 ng/mL
same,concentration at 6 h,"400 mg, 400 mg QD of Form B, Day 1, 6.0 h, Mean",20.1 ng/mL
same,concentration at 6 h,"400 mg, 400 mg QD of Form B, Day 1, 6.0 h, Median",21.6 ng/mL
same,concentration at 8 h,"400 mg, 400 mg QD of Form B, Day 1, 8.0 h, Mean",15.5 ng/mL
same,concentration at 8 h,"400 mg, 400 mg QD of Form B, Day 1, 8.0 h, Median",16 ng/mL
same,concentration at 10 h,"400 mg, 400 mg QD of Form B, Day 1, 10.0 h, Mean",10.6 ng/mL
same,concentration at 10 h,"400 mg, 400 mg QD of Form B, Day 1, 10.0 h, Median",9.56 ng/mL
same,concentration at 12 h,"400 mg, 400 mg QD of Form B, Day 1, 12.0 h, Mean",7.69 ng/mL
same,concentration at 12 h,"400 mg, 400 mg QD of Form B, Day 1, 12.0 h, Median",8.13 ng/mL
same,concentration at 24 h,"400 mg, 400 mg QD of Form B, Day 1, […], Mean",3.27 ng/mL
same,concentration at 24 h,"400 mg, 400 mg QD of Form B, Day 1, […], Median",3.31 ng/mL
same,concentration at 0 h,"400 mg, 400 mg QD of Form B, Day 29, 0.0 h, Mean",6.8 ng/mL
same,concentration at 0 h,"400 mg, 400 mg QD of Form B, Day 29, 0.0 h, Median",7.52 ng/mL
same,concentration at 1 h,"400 mg, 400 mg QD of Form B, Day 29, 1.0 h, Mean",8.07 ng/mL
same,concentration at 1 h,"400 mg, 400 mg QD of Form B, Day 29, 1.0 h, Median",9.88 ng/mL
same,concentration at 2 h,"400 mg, 400 mg QD of Form B, Day 29, 2.0 h, Mean",11.1 ng/mL
same,concentration at 2 h,"400 mg, 400 mg QD of Form B, Day 29, 2.0 h, Median",13.4 ng/mL
same,concentration at 3 h,"400 mg, 400 mg QD of Form B, Day 29, 3.0 h, Mean",14.2 ng/mL
same,concentration at 3 h,"400 mg, 400 mg QD of Form B, Day 29, 3.0 h, Median",17.2 ng/mL
same,concentration at 4 h,"400 mg, 400 mg QD of Form B, Day 29, 4.0 h, Mean",17 ng/mL
same,concentration at 4 h,"400 mg, 400 mg QD of Form B, Day 29, 4.0 h, Median",21.2 ng/mL
same,concentration at 6 h,"400 mg, 400 mg QD of Form B, Day 29, 6.0 h, Mean",18.9 ng/mL
same,concentration at 6 h,"400 mg, 400 mg QD of Form B, Day 29, 6.0 h, Median",23.2 ng/mL
same,concentration at 8 h,"400 mg, 400 mg QD of Form B, Day 29, 8.0 h, Mean",17 ng/mL
same,concentration at 8 h,"400 mg, 400 mg QD of Form B, Day 29, 8.0 h, Median",20.5 ng/mL
same,concentration at 10 h,"400 mg, 400 mg QD of Form B, Day 29, 10.0 h, Mean",14.2 ng/mL
same,concentration at 10 h,"400 mg, 400 mg QD of Form B, Day 29, 10.0 h, Median",17.1 ng/mL
same,concentration at 12 h,"400 mg, 400 mg QD of Form B, Day 29, 12.0 h, Mean",11.8 ng/mL
same,concentration at 12 h,"400 mg, 400 mg QD of Form B, Day 29, 12.0 h, Median",13.5 ng/mL
same,concentration at 24 h,"400 mg, 400 mg QD of Form B, Day 29, […], Mean",6.26 ng/mL
same,concentration at 24 h,"400 mg, 400 mg QD of Form B, Day 29, […], Median",7.04 ng/mL
same,concentration at 0 h,"500 mg, 500 mg QD of Form B, Day 1, 0.0 h, Mean",0 ng/mL
